{
  "source": "patent US9856511B2",
  "about": "“Protease deubiquitinating inhibitor screening” (priority 2011, dated 2018)",
  "key": {"19S RP": {"biological_target": "T1, 19S RP (Homo sapiens, UniProt P54578+Q9Y5K5)", "T1 construct": "purchased Boston Biochem E-366", "assay": "Ub-GFP cleavage assay with 19S RP", "type": "biochemical", "protocol": "To this end the ability of b-AP15 to inhibit cleavage of recombinant ubiquitin-GFP was assessed. Recombinant ubiquitin-GFP is a substrate for 19S RP DUB activity (22). […] The type of ubiquitin bonds present in the polyubiquitin chain determines the fate of an ubiquitin-modified substrate. K48 linked polyubiquitin chains generally targets conjoined proteins for degradation (23), whereas K63 linked chains are involved in non-proteolytic roles including DNA repair (24) and mitotic chromosome segregation (25). […] The inhibition of ubiquitin chain disassembly observed could account for the accumulation of high molecular weight ubiquitin conjugates in b-AP15 treated cells.\nThe recombinant Ub-GFP plasmid pet19b Ub-M-GFP was generated as described (42). In brief recombinant Ub-GFP was purified from BL21 E. coli cells by His affinity purification. For cleavage assays 19S RP (25 nM) was incubated with 10 mM NEM, 250 μM TPEN or 50 μM b-AP15 for 10 min followed by the addition of recombinant Ub-GFP (200 nM). […] The level of Ub-GFP cleavage or ubiquitin disassembly was determined by immunoblotting with anti ubiquitin antibodies. […] The cleavage of ubiquitinated Hdm2 substrate and ubiquitinated Hdm2 was determined by immunoblotting with anti-Hdm2 antibodies. […]"}, "UCHL5": {"biological_target": "T2, UCHL5 (Homo sapiens, UniProt Q9Y5K5)", "T2 construct": "purchased Boston Biochem E-366 (19S), E-365 (26S)", "assay": "HA-UbVS competitive active-site labelling of 19S RP or 26S proteasomes", "type": "binding", "details": "19S RP or 26S proteasomes incubated with b-AP15", "source_text": "(§1) The deubiquitinating activity of the proteasome is attributed to the action of three DUBs, UCHL5, USP14 and POH1, all localized within the 19S RP 26-28. Both UCHL5 and USP14 are sensitive to N-ethylmaleimide (NEM), a general inhibitor of cysteine proteases, whereas POH1 is insensitive to inhibition by NEM but sensitive to metal chelators such as N,N,N,N-tetrakis-(2-pyridylmethyl)ethylenediamine (TPEN) (29). […] To identify specifically which DUBs were inhibited by b-AP15 treatment, competitive labelling experiments were performed using hemagglutinin tagged ubiquitin vinylsulphonone (HA-UbVS), an active site directed probe that irreversibly reacts with DUBs of the cysteine class (26).\n(§2) For labelling of DUBs in cell lysates sub confluent cells were harvested by trypsinization, washed three times with PBS, and centrifuged at 1500 RPM for 5 min. Cell pellets were lysed with buffer (50 mM HEPES pH 7.4, 250 mM sucrose, 10 mM MgCl2, 2 mM ATP, 1 mM DTT) on ice for 15 min. Debris was removed by centrifugation and 25 μg of protein was labelled with 1 μM HA-UbVS for 30 min at 37° C. Samples were resolved by SDS-PAGE and analyzed by immunoblotting with indicated antibodies.\n(§3) 19S RP were pre-treated with DMSO, NEM (10 mM) b-AP15 (50 μM) (FIG. 3a) or TPEN (250 μM) (FIG. 3b) followed by addition of Ub-GFP and immunoblotting with anti-GFP antibodies. […]"}, "USP14": {"biological_target": "T3, USP14 (Homo sapiens, UniProt P54578)", "T3 construct": "purchased Boston Biochem E-366 (19S), E-365 (26S)", "assay": "HA-UbVS competitive active-site labelling of 19S RP or 26S proteasomes", "type": "binding", "details": "19S RP or 26S proteasomes incubated with b-AP15", "source_text": "as §1, §2, §3"}, "HCT-116 cells": {"system": "HCT-116 cells", "assay": "Cell-cycle analysis, propidium iodide staining and flow cytometry", "type": "cell-based", "protocol": "The turnover of many cell cycle regulatory proteins is controlled by the UPS including inhibitors of the cyclin-dependent kinases p21 Cip1, p27 Kip1 and the tumor suppressor p53 (4). Treatment with b-AP15 increased their levels in a dose dependent manner.\nFor determination of cell cycle HCT-116 cells were treated with b-AP15 or DMSO Cells were harvested by trypsinisation, washed and fixed in 70% ice cold EtOH for 12 h. Cells were re-suspended in staining solution containing propidium iodide (50 μg/ml) and RNAse A (0.5 μg/ml) in PBS. Samples were run on BD FACScalibur. The percentage of cells in each phase of the cell cycle was determined using ModFit software.\nb-AP15 inhibits degradation of ubiquitin-tagged YFP in a proteasome reporter cell line (FIG. 1a). Levels of ^UbG76V-YFP accumulation were determined by flow cytometry and immunoblotting; immunoblot of ubiquitin conjugation in HCT-116 cells treated with b-AP15 (1 μM) or bortezomib (100 nM) (FIG. 1b). Immunoblot of ubiquitin conjugates, caspase 3 activation PARP cleavage, p53. P21^Cip1 and p^Kip1 in HCT-116 cells following 24 h treatment with the indicated concentrations of b-AP15 (FIG. 1c). […]"}},
  "data": [
    {"smiles": "C=CC(=O)N1C/C(=C\\c2ccc([N+](=O)[O-])cc2)C(=O)/C(=C/c2ccc([N+](=O)[O-])cc2)C1", "note": "[b-AP15]", "values": [
      {"measurement": "cleavage of Ub-GFP by 19S RP", "setting": "19S RP", "result": "effectively inhibited"},
      {"measurement": "Ub-VS labelling of UCHL5", "setting": "UCHL5", "result": "abolished Ub-VS labelling"},
      {"measurement": "Ub-VS labelling of USP14", "setting": "USP14", "result": "abolished Ub-VS labelling"},
      {"measurement": "cell cycle effect", "setting": "HCT-116 cells", "result": "cell cycle arrest in the G2/M phase boundary"}
    ]}
  ]
}
